Laboratory results from ChEMBL document CHEMBL5715954, “Silencing c-Myc translation as a therapeutic strategy through targeting PI3Kδ and CK1ε in hematological malignancies” (Blood, 2017).

What was measured:
Set-up in all cases: scale not given: the % may be the effect or the level left
[1] = target: Tyrosine-protein kinase Blk (Homo sapiens) (UniProt P51451); experiment: Inhibition of human BLK assessed as enzyme activity at 1 uM using poly[Glu:Tyr] (4:1) as substrate preincubated for 20 mins followed by [gamma-33P]-ATP addition and measured after 120 mins by radiometric Hot-SpotSM Kinase assay relative to control
[2] = target: MAP kinase-activated protein kinase 3 (Homo sapiens) (UniProt Q16644); experiment: Inhibition of human MAPKAPK3 assessed as enzyme activity at 1 uM using KKLNRTLSVA as substrate preincubated for 20 mins followed by [gamma-33P]-ATP addition and measured after 120 mins by radiometric Hot-SpotSM Kinase assay relative to control
[3] = target: T1, MAP kinase-activated protein kinase 5 (Homo sapiens) (UniProt Q8IW41); experiment: Inhibition of human MAPKAPK5 assessed as enzyme activity at 1 uM using KKLNRTLSVA as substrate preincubated for 20 mins followed by [gamma-33P]-ATP addition and measured after 120 mins by radiometric Hot-SpotSM Kinase assay relative to control
T1 sequence (whole entry): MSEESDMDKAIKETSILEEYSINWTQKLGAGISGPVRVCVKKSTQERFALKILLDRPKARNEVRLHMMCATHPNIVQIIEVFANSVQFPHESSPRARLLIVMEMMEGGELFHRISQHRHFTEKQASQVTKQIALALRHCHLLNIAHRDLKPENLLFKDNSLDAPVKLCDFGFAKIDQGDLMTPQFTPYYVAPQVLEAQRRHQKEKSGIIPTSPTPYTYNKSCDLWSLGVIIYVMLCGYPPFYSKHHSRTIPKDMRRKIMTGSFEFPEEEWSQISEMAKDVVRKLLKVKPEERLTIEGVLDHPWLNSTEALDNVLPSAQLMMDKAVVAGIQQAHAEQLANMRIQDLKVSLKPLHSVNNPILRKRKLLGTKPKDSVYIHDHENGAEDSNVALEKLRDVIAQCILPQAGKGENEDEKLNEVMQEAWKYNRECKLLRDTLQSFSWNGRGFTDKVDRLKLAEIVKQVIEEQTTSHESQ

[4] = target: Maternal embryonic leucine zipper kinase (Homo sapiens) (UniProt Q14680); experiment: Inhibition of human MELK assessed as enzyme activity at 1 uM using KKLNRTLSFAEPG as substrate preincubated for 20 mins followed by [gamma-33P]-ATP addition and measured after 120 mins by radiometric Hot-SpotSM Kinase assay relative to control
[5] = target: T2, Serine/threonine-protein kinase Nek11 (Homo sapiens) (UniProt Q8NG66); experiment: Inhibition of human NEK11 assessed as enzyme activity at 1 uM using myelin basic protein as substrate preincubated for 20 mins followed by [gamma-33P]-ATP addition and measured after 120 mins by radiometric Hot-SpotSM Kinase assay relative to control
T2 sequence (whole entry): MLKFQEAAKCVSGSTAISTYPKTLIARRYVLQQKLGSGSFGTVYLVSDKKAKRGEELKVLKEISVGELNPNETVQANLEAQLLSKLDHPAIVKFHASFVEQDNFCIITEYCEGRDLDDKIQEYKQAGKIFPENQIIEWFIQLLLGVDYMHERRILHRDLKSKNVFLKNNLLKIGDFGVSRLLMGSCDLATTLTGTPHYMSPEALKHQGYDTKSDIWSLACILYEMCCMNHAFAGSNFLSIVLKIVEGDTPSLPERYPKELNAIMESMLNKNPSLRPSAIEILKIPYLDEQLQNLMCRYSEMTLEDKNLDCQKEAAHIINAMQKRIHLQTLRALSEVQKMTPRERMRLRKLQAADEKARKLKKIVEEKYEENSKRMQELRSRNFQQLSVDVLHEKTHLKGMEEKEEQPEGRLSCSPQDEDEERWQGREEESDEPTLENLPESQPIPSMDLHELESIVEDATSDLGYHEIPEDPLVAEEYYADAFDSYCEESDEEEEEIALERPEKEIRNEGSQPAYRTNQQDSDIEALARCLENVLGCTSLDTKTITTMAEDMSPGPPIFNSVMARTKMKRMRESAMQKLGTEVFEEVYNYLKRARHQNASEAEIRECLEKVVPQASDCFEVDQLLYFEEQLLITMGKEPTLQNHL

[6] = target: Serine/threonine-protein kinase PAK 3 (Homo sapiens) (UniProt O75914); experiment: Inhibition of human PAK3 assessed as enzyme activity at 1 uM using RRRLSFAEPG as substrate preincubated for 20 mins followed by [gamma-33P]-ATP addition and measured after 120 mins by radiometric Hot-SpotSM Kinase assay relative to control
[7] = target: High affinity nerve growth factor receptor (Homo sapiens) (UniProt P04629); experiment: Inhibition of human TRKA assessed as enzyme activity at 1 uM using poly[Glu:Tyr] (4:1) as substrate preincubated for 20 mins followed by [gamma-33P]-ATP addition and measured after 120 mins by radiometric Hot-SpotSM Kinase assay relative to control
[8] = target: T3, Serine/threonine-protein kinase ULK3 (Homo sapiens) (UniProt Q6PHR2); experiment: Inhibition of human ULK3 assessed as enzyme activity at 1 uM using myelin basic protein as substrate preincubated for 20 mins followed by [gamma-33P]-ATP addition and measured after 120 mins by radiometric Hot-SpotSM Kinase assay relative to control
T3 sequence (whole entry): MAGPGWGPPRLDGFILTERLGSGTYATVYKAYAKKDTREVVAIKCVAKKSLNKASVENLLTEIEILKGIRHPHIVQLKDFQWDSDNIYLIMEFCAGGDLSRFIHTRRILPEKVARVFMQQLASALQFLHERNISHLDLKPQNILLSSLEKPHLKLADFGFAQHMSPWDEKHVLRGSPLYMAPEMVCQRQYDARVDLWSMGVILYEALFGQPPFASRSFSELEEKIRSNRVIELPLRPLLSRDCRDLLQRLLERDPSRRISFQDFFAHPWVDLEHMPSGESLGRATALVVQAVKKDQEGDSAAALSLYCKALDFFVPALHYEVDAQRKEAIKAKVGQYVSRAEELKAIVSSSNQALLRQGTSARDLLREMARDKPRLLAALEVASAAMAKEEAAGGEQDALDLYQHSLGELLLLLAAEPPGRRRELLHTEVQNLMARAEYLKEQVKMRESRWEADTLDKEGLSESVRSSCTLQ

[9] = target: Serine/threonine-protein kinase WNK1 (Homo sapiens) (UniProt Q9H4A3); experiment: Inhibition of human WNK1 assessed as enzyme activity at 1 uM using myelin basic protein as substrate preincubated for 20 mins followed by [gamma-33P]-ATP addition and measured after 120 mins by radiometric Hot-SpotSM Kinase assay relative to control
Chain of Serine/threonine-protein kinase WNK1 (Homo sapiens) (Q9H4A3 whole entry, looked up): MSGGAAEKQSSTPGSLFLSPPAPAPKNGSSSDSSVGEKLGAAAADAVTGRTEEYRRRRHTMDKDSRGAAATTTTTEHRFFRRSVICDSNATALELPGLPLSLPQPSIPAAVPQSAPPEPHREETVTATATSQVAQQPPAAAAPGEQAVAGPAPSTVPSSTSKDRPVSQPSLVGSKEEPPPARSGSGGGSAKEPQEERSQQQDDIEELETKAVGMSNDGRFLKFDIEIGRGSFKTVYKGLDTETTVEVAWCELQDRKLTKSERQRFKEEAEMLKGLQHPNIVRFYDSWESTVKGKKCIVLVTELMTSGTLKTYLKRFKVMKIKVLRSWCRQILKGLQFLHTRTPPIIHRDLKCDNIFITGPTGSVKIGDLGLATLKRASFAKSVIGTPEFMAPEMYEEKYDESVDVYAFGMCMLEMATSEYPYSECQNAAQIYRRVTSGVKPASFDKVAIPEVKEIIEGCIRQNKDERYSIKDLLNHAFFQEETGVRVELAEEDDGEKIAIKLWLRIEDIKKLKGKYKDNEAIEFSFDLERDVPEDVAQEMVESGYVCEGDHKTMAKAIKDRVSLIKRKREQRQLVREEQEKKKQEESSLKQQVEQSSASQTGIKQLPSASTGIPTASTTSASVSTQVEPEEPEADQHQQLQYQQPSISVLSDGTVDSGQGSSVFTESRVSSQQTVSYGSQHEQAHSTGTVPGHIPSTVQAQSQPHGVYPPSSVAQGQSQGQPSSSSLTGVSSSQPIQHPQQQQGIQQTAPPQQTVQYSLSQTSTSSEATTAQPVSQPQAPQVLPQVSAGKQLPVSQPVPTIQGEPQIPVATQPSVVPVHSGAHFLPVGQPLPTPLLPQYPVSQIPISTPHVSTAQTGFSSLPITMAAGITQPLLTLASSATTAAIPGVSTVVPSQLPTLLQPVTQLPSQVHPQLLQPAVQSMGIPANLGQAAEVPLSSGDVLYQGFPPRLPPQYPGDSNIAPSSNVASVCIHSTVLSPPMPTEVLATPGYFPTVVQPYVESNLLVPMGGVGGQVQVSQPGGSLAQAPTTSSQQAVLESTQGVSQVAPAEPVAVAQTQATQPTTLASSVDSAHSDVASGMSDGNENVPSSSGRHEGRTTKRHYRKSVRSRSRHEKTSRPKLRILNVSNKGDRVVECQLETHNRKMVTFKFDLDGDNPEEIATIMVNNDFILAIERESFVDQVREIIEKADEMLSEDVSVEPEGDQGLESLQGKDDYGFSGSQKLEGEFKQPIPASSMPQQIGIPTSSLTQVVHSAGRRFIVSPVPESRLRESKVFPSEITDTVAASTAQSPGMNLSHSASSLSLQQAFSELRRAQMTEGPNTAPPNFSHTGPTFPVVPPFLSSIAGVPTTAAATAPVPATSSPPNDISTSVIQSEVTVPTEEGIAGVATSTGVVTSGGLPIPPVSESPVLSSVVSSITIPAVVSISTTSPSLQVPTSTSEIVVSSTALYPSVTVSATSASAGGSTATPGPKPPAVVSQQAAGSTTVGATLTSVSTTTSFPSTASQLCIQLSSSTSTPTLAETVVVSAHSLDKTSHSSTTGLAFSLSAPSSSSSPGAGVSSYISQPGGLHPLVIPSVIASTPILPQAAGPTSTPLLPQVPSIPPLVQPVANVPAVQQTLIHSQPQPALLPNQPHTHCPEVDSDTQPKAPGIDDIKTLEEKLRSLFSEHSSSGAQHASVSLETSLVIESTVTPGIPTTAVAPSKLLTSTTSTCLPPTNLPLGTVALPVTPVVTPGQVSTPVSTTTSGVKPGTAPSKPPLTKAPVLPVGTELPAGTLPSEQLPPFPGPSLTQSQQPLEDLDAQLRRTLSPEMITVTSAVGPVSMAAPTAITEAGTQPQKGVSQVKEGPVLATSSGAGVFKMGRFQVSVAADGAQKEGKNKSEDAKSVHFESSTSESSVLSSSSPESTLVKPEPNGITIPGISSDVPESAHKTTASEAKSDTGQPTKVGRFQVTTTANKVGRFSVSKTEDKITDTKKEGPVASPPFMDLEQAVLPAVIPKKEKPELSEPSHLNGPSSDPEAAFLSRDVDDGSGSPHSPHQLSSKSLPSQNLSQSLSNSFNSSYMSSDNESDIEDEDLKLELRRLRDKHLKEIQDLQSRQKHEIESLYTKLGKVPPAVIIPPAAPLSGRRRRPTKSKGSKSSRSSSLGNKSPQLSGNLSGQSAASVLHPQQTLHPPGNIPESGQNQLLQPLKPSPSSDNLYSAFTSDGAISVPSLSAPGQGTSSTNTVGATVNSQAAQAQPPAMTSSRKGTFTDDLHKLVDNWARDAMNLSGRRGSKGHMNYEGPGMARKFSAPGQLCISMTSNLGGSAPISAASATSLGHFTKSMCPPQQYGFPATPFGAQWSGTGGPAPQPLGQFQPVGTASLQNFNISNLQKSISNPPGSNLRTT

Chain of Tyrosine-protein kinase Blk (Homo sapiens) (P51451 2-505 limits assumed): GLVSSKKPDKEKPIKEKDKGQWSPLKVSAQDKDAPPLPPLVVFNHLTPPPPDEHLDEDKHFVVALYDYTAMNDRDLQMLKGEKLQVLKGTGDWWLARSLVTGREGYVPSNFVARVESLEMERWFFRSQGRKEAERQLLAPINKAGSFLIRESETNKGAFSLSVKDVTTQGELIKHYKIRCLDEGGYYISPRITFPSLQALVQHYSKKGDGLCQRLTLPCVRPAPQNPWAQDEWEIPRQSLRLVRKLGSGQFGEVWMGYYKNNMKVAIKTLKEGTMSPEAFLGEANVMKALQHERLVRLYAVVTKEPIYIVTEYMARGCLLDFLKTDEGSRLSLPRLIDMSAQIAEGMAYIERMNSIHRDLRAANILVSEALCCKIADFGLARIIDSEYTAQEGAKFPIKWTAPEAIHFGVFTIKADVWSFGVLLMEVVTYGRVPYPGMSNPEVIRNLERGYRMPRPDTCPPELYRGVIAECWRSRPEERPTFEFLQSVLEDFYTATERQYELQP
Chain of MAP kinase-activated protein kinase 3 (Homo sapiens) (Q16644 whole entry, looked up): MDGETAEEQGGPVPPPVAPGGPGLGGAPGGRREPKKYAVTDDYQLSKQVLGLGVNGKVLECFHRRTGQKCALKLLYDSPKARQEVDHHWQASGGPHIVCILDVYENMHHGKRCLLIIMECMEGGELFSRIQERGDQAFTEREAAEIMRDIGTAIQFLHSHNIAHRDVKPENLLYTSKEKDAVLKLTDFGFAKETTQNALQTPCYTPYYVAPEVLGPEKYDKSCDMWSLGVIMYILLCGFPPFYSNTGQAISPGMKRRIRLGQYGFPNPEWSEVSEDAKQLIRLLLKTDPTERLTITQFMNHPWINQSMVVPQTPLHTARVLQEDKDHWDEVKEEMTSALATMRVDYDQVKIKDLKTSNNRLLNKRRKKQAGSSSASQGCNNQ
Chain of Maternal embryonic leucine zipper kinase (Homo sapiens) (Q14680 whole entry, looked up): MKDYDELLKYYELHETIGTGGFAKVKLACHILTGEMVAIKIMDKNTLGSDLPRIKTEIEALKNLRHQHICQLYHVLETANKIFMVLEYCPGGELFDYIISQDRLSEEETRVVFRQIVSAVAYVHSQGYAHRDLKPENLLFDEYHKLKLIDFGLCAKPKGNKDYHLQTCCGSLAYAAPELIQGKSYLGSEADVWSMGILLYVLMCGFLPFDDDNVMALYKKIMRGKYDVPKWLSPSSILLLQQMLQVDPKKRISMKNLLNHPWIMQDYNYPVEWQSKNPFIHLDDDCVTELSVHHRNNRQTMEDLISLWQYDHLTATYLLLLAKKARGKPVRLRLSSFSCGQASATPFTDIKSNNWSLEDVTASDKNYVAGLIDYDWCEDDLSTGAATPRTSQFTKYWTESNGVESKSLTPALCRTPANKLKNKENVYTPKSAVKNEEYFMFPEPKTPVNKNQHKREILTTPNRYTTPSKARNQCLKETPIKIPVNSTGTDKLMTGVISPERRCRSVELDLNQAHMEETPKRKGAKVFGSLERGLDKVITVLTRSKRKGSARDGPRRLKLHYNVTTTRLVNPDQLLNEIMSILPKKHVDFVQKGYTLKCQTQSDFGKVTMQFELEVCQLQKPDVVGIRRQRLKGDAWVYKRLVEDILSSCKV
Chain of High affinity nerve growth factor receptor (Homo sapiens) (P04629 33-796 limits assumed): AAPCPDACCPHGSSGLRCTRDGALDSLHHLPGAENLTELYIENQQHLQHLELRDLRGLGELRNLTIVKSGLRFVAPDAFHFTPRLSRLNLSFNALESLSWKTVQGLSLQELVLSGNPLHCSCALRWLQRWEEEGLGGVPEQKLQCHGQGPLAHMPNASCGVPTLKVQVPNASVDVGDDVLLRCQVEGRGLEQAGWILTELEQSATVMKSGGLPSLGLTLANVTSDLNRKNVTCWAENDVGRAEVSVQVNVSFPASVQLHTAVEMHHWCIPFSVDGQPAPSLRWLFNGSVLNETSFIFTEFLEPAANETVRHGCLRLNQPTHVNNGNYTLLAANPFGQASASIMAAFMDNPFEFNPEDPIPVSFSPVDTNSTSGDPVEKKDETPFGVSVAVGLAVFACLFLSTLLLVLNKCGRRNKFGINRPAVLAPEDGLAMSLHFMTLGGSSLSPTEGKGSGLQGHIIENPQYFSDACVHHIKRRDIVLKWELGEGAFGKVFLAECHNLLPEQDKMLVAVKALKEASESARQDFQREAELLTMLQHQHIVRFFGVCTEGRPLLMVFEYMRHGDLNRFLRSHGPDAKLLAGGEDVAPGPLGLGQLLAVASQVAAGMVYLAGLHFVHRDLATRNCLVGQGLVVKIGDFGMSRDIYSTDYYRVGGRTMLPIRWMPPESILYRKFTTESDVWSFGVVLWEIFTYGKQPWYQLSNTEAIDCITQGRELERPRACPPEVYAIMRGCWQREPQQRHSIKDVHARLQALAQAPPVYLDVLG

Structure (SMILES)	Activity [1] [%]	Activity [2] [%]	Activity [3] [%]	Activity [4] [%]	Activity [5] [%]	Activity [6] [%]	Activity [7] [%]	Activity [8] [%]	Activity [9] [%]
CC[C@H](Nc1ncnc2[nH]cnc12)c1nc2cccc(F)c2c(=O)n1-c1ccccc1	97.6	97.3	99.5	93.6	84.5	94.5	91	89.3	90.7
C[C@H](Nc1ncnc2nc[nH]c12)c1cc2cccc(Cl)c2c(=O)n1-c1ccccc1	96.9	95.8	99	94.5	90.1	95.5	87.3	93.2	79.4
CC(C)Oc1ccc(-c2nn([C@@H](C)c3oc4ccc(F)cc4c(=O)c3-c3cccc(F)c3)c3ncnc(N)c23)cc1F [UMBRALISIB]	99.7	90.6	104	105	84.8	96.5	89	93.8	100
